Assay type in all cases: biochemical
For one test, the target named is T1, PI3K delta (Homo sapiens, UniProt O00329).
T1 construct: for the full-length p110-d subunit are generated and fused by overlapping PCR; His tag (C); made in house; host or cells: baculovirus; Tn5 (Trichoplusia ni) or TiniPro insect cells
Nature of the test: PI3 kinase assay (Kinase-Glo luminescence), PI3K delta. Conditions: Enzymatic Data; read-out: PI3K delta IC50 [umol]. Put shortly: (§1)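 Recombinant PI3K constructs (alfa 10 nM, delta 10 nM, gamma 150 nM) with 1 μM ATP and 10 μg/mL phosphatidylinositol in Tris pH 7.5, MgCl2, NaCl, CHAPS, DTT; 60 min (alfa, delta) or 120 min (gamma) at room temperature. ATP depletion read by Kinase-Glo luminescence; IC50 from 4-parameter logistic fit over 8 concentrations.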
In general terms: Kinase-Glo measures the ATP left after a reaction by luminescence.

Another test deals with T2, PI3K beta (Homo sapiens, UniProt P42338).
T2 construct: for the full-length p110-b subunit are generated and fused by overlapping PCR; His tag (C); made in house; host or cells: baculovirus; Tn5 (Trichoplusia ni) or TiniPro insect cells
T2 sequence (P42338 with tags, fused parts or gaps limits assumed): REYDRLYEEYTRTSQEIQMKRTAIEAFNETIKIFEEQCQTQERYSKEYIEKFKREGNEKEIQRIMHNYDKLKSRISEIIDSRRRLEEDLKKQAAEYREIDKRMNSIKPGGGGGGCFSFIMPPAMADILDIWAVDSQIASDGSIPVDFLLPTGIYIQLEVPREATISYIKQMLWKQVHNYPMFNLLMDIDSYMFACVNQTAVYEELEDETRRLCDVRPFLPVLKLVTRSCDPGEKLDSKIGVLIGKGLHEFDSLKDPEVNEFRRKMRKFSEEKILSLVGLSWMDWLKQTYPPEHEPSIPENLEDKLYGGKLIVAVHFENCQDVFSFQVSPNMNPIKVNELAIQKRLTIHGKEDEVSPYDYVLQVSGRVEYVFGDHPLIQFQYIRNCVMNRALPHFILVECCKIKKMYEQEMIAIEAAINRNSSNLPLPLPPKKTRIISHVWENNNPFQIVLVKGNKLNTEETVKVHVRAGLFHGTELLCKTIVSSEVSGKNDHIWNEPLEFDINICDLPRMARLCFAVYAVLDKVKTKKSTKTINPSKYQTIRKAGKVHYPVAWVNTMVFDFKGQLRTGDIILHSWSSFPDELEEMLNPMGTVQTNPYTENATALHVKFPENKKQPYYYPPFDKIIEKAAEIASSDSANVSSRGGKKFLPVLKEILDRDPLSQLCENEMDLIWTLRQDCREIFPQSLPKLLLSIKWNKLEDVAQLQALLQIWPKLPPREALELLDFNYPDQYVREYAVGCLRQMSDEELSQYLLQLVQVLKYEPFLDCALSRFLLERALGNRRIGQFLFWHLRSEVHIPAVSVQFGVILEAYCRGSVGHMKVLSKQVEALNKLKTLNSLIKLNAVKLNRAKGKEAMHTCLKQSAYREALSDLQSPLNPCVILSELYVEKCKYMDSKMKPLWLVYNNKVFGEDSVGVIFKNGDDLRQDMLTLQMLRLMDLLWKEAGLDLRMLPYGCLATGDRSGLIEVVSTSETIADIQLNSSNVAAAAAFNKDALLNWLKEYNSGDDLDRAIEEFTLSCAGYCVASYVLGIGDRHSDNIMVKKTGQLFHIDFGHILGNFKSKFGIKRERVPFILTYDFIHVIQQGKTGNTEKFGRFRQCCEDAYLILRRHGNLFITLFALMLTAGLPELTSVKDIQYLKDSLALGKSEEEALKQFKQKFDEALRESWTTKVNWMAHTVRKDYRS
Nature of the test: PI3 kinase assay (Kinase-Glo luminescence), PI3K beta. The note with it: Enzymatic Data; read-out: PI3K beta IC50 [umol]. Put shortly:
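PI3Kβ (25 nM, BV-949) with 10 μg/mL phosphatidylinositol in Tris pH 7.5/MgCl2/NaCl/CHAPS/DTT buffer; reaction started with 1 μM ATP, 60 min at room temperature. ATP depletion read by Kinase-Glo luminescence; 8-point dilutions, IC50 by four-parameter logistic fit.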

A further test concerns the target T3, PI3K alfa (Homo sapiens, UniProt P42336).
T3 construct: for the p110-a subunit (with a deletion of the first 20 amino acids); His tag (C); made in house; host or cells: baculovirus; Tn5 (Trichoplusia ni) or TiniPro insect cells
The test is described as follows: PI3 kinase assay (Kinase-Glo luminescence), PI3K alfa. Conditions: Enzymatic Data; read-out: PI3K alfa IC50 [umol]. Put shortly: as §1

A further test has as its target T4, PI3K gamma (Homo sapiens, UniProt P48736).
T4 construct: PI3Kγ BV-950 p110g(D144aa)-C-Term His Tag; His tag (C); made in house; host or cells: construct from the Roger Williams lab (MRC LMB) in pVL1393; baculovirus; Tn5 (Trichoplusia ni) or TiniPro insect cells
Nature of the test: PI3 kinase assay (Kinase-Glo luminescence), PI3K gamma. Conditions: Enzymatic Data; read-out: PI3K gamma IC50 [umol]. The gist of the method: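 Percent inhibition at eight concentrations (typically 10 to 0.003 […]) fitted to a four-parameter logistic model to give IC50. Reaction initiated with ATP; final ATP 1 μM and phosphatidylinositol 10 μg/mL; ATP consumption read by Kinase-Glo luminescence.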

The source of these data is US20100311729A1, “Substituted imidazopyridazines and pyrrolopyrimidines as lipid kinase inhibitors” (priority 2007, published 2010).

T4 sequence (P48736 144-1102 limits assumed): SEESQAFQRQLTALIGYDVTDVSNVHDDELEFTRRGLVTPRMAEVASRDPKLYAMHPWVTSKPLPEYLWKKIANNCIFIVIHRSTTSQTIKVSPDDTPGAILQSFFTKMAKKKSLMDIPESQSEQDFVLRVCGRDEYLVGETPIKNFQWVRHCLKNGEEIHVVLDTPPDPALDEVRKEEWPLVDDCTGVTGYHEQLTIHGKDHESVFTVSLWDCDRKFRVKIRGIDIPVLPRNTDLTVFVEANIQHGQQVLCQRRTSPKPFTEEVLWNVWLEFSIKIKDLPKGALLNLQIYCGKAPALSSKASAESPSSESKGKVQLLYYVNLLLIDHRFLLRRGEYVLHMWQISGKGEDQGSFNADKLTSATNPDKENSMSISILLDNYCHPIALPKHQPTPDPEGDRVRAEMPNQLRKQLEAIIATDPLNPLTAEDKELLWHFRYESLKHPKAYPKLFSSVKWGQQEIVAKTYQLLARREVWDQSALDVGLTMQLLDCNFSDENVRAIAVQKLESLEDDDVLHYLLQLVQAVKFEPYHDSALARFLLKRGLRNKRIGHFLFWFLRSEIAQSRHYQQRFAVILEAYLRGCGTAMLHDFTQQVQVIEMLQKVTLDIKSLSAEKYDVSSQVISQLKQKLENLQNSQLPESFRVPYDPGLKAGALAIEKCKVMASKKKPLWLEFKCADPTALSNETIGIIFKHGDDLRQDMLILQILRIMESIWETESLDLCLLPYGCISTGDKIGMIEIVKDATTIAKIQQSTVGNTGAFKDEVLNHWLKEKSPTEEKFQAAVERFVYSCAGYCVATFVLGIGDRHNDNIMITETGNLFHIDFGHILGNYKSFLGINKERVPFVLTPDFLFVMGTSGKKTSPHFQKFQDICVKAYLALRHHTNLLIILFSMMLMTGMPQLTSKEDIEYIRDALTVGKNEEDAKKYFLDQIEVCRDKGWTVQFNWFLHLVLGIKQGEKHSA
T1 sequence (O00329 with tags, fused parts or gaps limits assumed): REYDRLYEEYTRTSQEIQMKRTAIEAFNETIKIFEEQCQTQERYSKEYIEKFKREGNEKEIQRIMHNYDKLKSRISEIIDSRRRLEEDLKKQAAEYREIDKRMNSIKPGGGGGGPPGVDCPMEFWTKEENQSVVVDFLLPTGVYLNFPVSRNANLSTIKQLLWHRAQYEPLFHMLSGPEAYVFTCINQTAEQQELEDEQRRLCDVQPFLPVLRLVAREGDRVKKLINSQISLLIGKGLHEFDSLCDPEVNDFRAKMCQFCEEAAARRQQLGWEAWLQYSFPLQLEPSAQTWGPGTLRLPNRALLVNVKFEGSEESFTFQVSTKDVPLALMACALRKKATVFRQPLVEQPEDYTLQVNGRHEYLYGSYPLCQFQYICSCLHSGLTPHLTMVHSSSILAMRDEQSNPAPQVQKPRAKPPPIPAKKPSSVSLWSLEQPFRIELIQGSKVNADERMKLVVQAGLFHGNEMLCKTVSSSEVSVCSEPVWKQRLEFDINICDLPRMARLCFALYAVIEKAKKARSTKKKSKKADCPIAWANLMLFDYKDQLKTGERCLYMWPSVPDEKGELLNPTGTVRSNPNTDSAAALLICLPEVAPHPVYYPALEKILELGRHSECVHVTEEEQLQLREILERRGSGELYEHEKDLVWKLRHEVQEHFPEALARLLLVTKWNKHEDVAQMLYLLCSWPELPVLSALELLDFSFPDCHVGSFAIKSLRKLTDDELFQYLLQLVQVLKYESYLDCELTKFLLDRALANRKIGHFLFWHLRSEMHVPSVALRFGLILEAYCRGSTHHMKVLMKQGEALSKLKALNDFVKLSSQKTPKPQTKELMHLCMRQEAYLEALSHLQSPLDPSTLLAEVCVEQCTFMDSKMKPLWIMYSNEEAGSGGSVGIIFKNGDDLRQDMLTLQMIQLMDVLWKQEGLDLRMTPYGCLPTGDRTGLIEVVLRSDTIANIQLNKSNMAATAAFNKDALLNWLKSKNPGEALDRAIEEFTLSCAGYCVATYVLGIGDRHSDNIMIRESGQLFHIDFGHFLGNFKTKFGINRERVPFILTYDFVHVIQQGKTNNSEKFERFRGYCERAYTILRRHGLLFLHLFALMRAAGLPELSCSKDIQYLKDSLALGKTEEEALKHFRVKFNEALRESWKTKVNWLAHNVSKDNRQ
T3 sequence (P42336 with tags, fused parts or gaps limits assumed): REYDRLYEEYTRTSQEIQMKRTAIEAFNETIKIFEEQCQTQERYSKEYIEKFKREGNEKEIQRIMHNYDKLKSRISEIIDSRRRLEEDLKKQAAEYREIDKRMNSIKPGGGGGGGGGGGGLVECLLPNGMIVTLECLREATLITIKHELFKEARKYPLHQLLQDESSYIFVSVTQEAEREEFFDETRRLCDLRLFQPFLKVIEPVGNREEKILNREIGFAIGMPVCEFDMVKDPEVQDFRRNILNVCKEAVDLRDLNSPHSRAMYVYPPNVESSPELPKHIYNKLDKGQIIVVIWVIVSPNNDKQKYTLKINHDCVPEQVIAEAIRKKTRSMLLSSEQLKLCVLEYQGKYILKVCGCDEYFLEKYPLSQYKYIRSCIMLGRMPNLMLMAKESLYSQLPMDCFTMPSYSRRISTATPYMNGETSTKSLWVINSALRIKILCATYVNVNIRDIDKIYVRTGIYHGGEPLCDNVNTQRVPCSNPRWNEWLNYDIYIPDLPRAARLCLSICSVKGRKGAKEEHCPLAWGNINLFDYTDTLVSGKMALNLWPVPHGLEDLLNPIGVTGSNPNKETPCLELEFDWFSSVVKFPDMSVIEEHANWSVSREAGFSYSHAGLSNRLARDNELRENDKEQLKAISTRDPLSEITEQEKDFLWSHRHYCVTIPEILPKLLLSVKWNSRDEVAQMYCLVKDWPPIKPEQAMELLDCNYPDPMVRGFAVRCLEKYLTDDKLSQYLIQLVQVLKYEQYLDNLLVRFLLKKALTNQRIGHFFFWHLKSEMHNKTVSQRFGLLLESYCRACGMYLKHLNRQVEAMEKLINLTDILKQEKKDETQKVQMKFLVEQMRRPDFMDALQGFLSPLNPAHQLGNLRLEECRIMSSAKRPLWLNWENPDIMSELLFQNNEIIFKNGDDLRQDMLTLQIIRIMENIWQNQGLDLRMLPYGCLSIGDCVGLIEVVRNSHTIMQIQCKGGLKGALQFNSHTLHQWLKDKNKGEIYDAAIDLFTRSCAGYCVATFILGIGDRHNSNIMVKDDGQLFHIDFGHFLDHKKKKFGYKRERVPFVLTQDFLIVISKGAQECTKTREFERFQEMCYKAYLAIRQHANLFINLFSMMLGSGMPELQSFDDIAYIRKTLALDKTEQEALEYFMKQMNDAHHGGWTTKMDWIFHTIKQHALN

In the case of `COc1nc(-c2cnc3ccc(-c4cnc(N)c(C(F)(F)F)c4)nn23)cnc1N` [Example 67, 5-[6-(6-Amino-5-trifIuoro-methyl-pyridin-3-yl)-imidazo[1,2-b]pyridazin-3-yl]-3-methoxy-pyrazin-2-ylamine], the IC50 on PI3K delta was 85 nM; on PI3K beta it was 21 nM; at PI3K alfa it was 34 nM; at PI3K gamma it was 2630 nM.
The corresponding values for `COc1ccc(-c2ccc3ncc(-c4cnc(N)c(OC)n4)n3n2)cc1OC` [Example 68, 5-[6-(3,4-Dimethoxy-phenyl)-imidazo [1,2-b]pyridazin-3-yl]-3-methoxy-pyrazin-2-ylamine] are 26 nM, 51 nM, 9 nM and 1300 nM.
For `CC(C)(C)OC(=O)NCCn1cc(-c2ccc3ncc(-c4cnc(N)c(C(F)(F)F)c4)n3n2)ccc1=O` [Example 69, (2-{5-[3-(6-Amino-5-trifluoro-methyl-pyridin-3-yl)-imidazo [1,2-b]pyridazin-6-yl]-2-oxo-2H-pyridin-1-yl}-ethyl)-carbamic acid tert-butyl ester], in that order: 156 nM, 1430 nM, 50 nM and 2430 nM.
The corresponding values for `NCCn1cc(-c2ccc3ncc(-c4cnc(N)c(C(F)(F)F)c4)n3n2)ccc1=O` [Example 70, 1-(2-Amino-ethyl)-5-[3-(6-amino-5-trifluoro-methyl-pyridin-3-yl)-imidazo [1,2-b]pyridazin-6-yl]-1H-pyridin-2-one] are 63 nM, 49 nM, 58 nM and 491 nM.
As for `CC(=O)NCCCOc1ccc(-c2ccc3ncc(-c4cnc(N)c(C(F)(F)F)c4)n3n2)cc1` [Example 71, N-(3-{4-[3-(6-Amino-5-trifluoro-methyl-pyridin-3-yl)-imidazo [1,2-b]pyridazin-6-yl]-phenoxy}-propyl)-acetamide], the IC50 was 739 nM on PI3K delta, 2650 nM at PI3K beta, 170 nM on PI3K alfa and 8510 nM at PI3K gamma.
The corresponding values for `CC(C)S(=O)(=O)c1ccc(-c2cnc3ccc(-c4cnc(N)c(C(F)(F)F)c4)nn23)cc1` [Example 72, 5-{3-[4-(Propane-2-sulfonyl)-phenyl]-imidazo[1,2-b]pyridazin-6-yl}-3-trifluoro-methyl-pyridin-2-lamine] are 56 nM, 233 nM, 28 nM and 2020 nM.
Take `CC(C)(C)OC(=O)NCCOc1ccc(-c2ccc3ncc(-c4cnc(N)c(C(F)(F)F)c4)n3n2)cc1` [Example 73, (2-{4-[3-(6-Amino-5-trifluoro-methyl-pyridin-3-yl)-imidazo [1,2-b]pyridazin-6-yl]-phenoxy}-ethyl)-carbamic acid tert-butyl ester]: the IC50 is 3950 nM at PI3K delta, > 9100 nM on PI3K beta, 725 nM at PI3K alfa and > 9100 nM on PI3K gamma.
`NCCOc1ccc(-c2ccc3ncc(-c4cnc(N)c(C(F)(F)F)c4)n3n2)cc1` [Example 74, 5-{6-[4-(2-Amino-ethoxy)-phenyl]-imidazo [1,2-b]pyridazin-3-yl}-3-trifluoro-methyl-pyridin-2-ylamine]: the IC50 at PI3K delta came to 162 nM; on PI3K beta, 147 nM; at PI3K alfa it was 159 nM; on PI3K gamma, 1430 nM.
The corresponding values for `CC(=O)NCCOc1ccc(-c2ccc3ncc(-c4cnc(N)c(C(F)(F)F)c4)n3n2)cc1` [Example 75, N-(2-{4-[3-(6-Amino-5-trifluoro-methyl-pyridin-3-yl)-imidazo [1,2-b]pyridazin-6-yl]-phenoxy}-ethyl)-acetamide] are 135 nM, 651 nM, 75 nM and 3090 nM.
For `CC(=O)NCCn1cc(-c2ccc3ncc(-c4cnc(N)c(C(F)(F)F)c4)n3n2)ccc1=O` [Example 76, N-(2-{5-[3-(6-Amino-5-trifluoro-methyl-pyridin-3-yl)-imidazo [1,2-b]pyridazin-6-yl]-2-oxo-2H-pyridin-1-yl}-ethyl)-acetamide], in that order: 151 nM, 670 nM, 158 nM and 3220 nM.
The corresponding values for `COc1cccc(-c2ccc3ncc(-c4cnc(N)c(C(F)(F)F)c4)n3n2)c1` [Example 77, 5-[6-(3-Methoxy-phenyl)-imidazo [1,2-b]pyridazin-3-yl]-3-trifluoro-methyl-pyridin-2-ylamine] are 623 nM, 1120 nM, 190 nM and 2560 nM.
Consider `COc1cccc(-c2ccc3ncc(-c4cnc5[nH]ccc5c4)n3n2)c1` [Example 78, 6-(3-Methoxy-phenyl)-3-{1H-pyrrolo [2.3-b]pyridin-5-yl)-imidazo [1,2-b] pyridazine], for which the IC50 on PI3K delta was determined as 1060 nM; on PI3K beta, 2060 nM; at PI3K alfa, 130 nM; on PI3K gamma, 4040 nM.
The corresponding values for `Nc1ncc(-c2ccc3ncc(-c4ccc(C(=O)NCCN5CCOCC5)cc4)n3n2)cc1C(F)(F)F` [Example 80, 4-[6-(6-Amino-5-trifluoro-methyl-pyridin-3-yl)-imidazo [1,2-b]pyridazin-3-yl]-N-(2-morpholin-4-yl-ethyl)-benzamide] are 57 nM, 210 nM, 15 nM and 1160 nM.
For `Nc1ncc(-c2ccc3ncc(-c4ccc(C(=O)NCCCN5CCOCC5)cc4)n3n2)cc1C(F)(F)F` [Example 81, 4-[6-(6-Amino-5-trifluoromethyl-pyridin-3-yl)-imidazo [1,2-b]pyridazin-3-yl]-N-(3-morpholin-4-yl-propyl)-benzamide], in that order: 13 nM, 82 nM, 21 nM and 638 nM.
The corresponding values for `CC(=O)N1CCN(C(=O)c2ccc(-c3cnc4ccc(-c5cnc(N)c(C(F)(F)F)c5)nn34)cc2)CC1` [Example 82, 1-(4-{4-[6-(6-Amino-5-trifIuoro-methyl-pyridin-3-yl)-imidazo [1,2-b]pyridazin-3-yl]-benzoyl}-piperazin-1-yl)-ethanone] are 7 nM, 169 nM, 18 nM and 526 nM.
Consider `CN(C)C(=O)c1ccc(CNC(=O)c2ccc(-c3cnc4ccc(-c5cnc(N)c(C(F)(F)F)c5)nn34)cc2)cc1` [Example 83, N-(4-N-dimethylacetyl-benzyl)-4-[6-(6-amino-5-trifluoro-methyl-pyridin-3-yl)-imidazo [1,2-b]pyridazin-3-yl]-benzamide], for which the IC50 was 23 nM at PI3K delta, 166 nM at PI3K beta, 27 nM at PI3K alfa and 558 nM on PI3K gamma.
For `CC(=O)c1ccc(CNC(=O)c2ccc(-c3cnc4ccc(-c5cnc(N)c(C(F)(F)F)c5)nn34)cc2)cc1` [Example 84, N-(4-Acetyl-benzyl)-4-[6-(6-amino-5-trifluoromethyl-pyridin-3-yl)-imidazo [1,2-b]pyridazin-3-yl]-benzamide], in that order: 308 nM, 5560 nM, 87 nM and 3240 nM.
For `Nc1ncc(-c2ccc3ncc(-c4ccc(C(=O)N5CCN(Cc6ccccn6)CC5)cc4)n3n2)cc1C(F)(F)F` [Example 85, {4-[6-(6-Amino-5-trifluoromethyl-pyridin-3-yl)-imidazo[1,2-b]pyridazin-3-yl]-phenyl}-(4-pyridin-2-ylmethyl-piperazin-1-yl)-methanone], in that order: 15 nM, 340 nM, 19 nM and 129 nM.
The corresponding values for `CC(C)C(=O)NCCOc1ccc(-c2ccc3ncc(-c4cnc(N)c(C(F)(F)F)c4)n3n2)cc1` [Example 86, N-(2-{4-[3-(6-Amino-5-trifluoro-methyl-pyridin-3-yl)-imidazo [1,2-b]pyridazin-6-yl]-phenoxy}-ethyl)-isobutyramide] are 97 nM, 701 nM, 94 nM and 111 nM.
Turning to `CNc1ncc(-c2cnc3ccc(-c4cnc(N)c(C(F)(F)F)c4)nn23)cn1` [Example 87, {5-[6-(6-Amino-5-trifluoro-methyl-pyridin-3-yl)-imidazo [1,2-b]pyridazin-3-yl]-pyrimidin-2-yl)-methylamine], the IC50 at PI3K delta turned out to be 18 nM; at PI3K beta, 10 nM; at PI3K alfa it was 29 nM; on PI3K gamma it was 1230 nM.
